Results as given in ChEMBL document CHEMBL2385075, “Anti-inflammatory and antinociceptive activity of epiisopiloturine, an imidazole alkaloid isolated from Pilocarpus microphyllus” (J Nat Prod, 2013).
Active and inactive are the calls of the source. No cut-off for these calls is given here.

Key:
Mus musculus [1] = assay: Antiinflammatory activity in Swiss mouse assessed as inhibition of carrageenan-induced paw edema at 0.3 mg/kg, ip measured at 3 hrs by plethysmometric analysis relative to untreated control; format: functional; details: route intraperitoneal
Mus musculus [2] = assay: Antinociceptive activity in Swiss mouse assessed as inhibition of formalin-induced paw licking at 1 mg/kg, ip administered 30 mins prior to formalin challenge measured during inflammatory phase for 20 to 25 mins; format: functional; details: route intraperitoneal
Mus musculus [3] = assay: Antiinflammatory activity in Swiss mouse assessed as inhibition of carrageenan-induced neutrophil migration into peritoneal cavity at 1 mg/kg, ip administered 30 mins prior to carrageenan challenge measured after 4 hrs relative to carrageenan-treated control; format: functional; details: route intraperitoneal
Mus musculus [4] = assay: Antiinflammatory activity in Swiss mouse assessed as inhibition of carrageenan-induced paw edema at 0.1 mg/kg, ip measured at 4 hrs by plethysmometric analysis relative to untreated control; format: functional; details: route intraperitoneal
Mus musculus [5] = assay: Antiinflammatory activity in Swiss mouse assessed as inhibition of dextran sulfate-induced paw edema at 1 mg/kg, ip administered 30 mins prior to dextran sulfate challenge measured after 4 hrs relative to untreated control; format: functional; details: route intraperitoneal
Mus musculus [6] = assay: Antiinflammatory activity in Swiss mouse assessed as inhibition of carrageenan-induced paw edema at 0.3 mg/kg, ip measured at 4 hrs by plethysmometric analysis relative to untreated control; format: functional; details: route intraperitoneal
Mus musculus [7] = assay: Antinociceptive activity in Swiss mouse assessed as inhibition of formalin-induced paw licking at 1 mg/kg, ip administered 30 mins prior to formalin challenge measured during neurogenic phase for 1 to 5 mins; format: functional; details: route intraperitoneal
Mus musculus [8] = assay: Antiinflammatory activity in Swiss mouse assessed as inhibition of bradykinin-induced paw edema at 1 mg/kg, ip administered 30 mins prior to bradykinin challenge measured after 60 mins in presence of captopril relative to untreated control; format: functional; details: route intraperitoneal
Mus musculus [9] = assay: Antiinflammatory activity in Swiss mouse assessed as inhibition of carrageenan-induced paw edema at 1 mg/kg, ip measured at 3 hrs by plethysmometric analysis relative to untreated control; format: functional; details: route intraperitoneal
Mus musculus [10] = assay: Antiinflammatory activity in Swiss mouse assessed as inhibition of carrageenan-induced paw edema at 0.1 mg/kg, ip measured at 2 hrs by plethysmometric analysis relative to untreated control; format: functional; details: route intraperitoneal
Mus musculus [11] = assay: Antiinflammatory activity in Swiss mouse assessed as inhibition of carrageenan-induced paw edema at 1 mg/kg, ip measured at 1 hr by plethysmometric analysis relative to untreated control; format: functional; details: route intraperitoneal
Mus musculus [12] = assay: Antiinflammatory activity in Swiss mouse assessed as reduction of carrageenan-induced TNFalpha level into peritoneal fluid at 1 mg/kg, ip administered 1 hr prior to carrageenan challenge measured after 4 hrs by sandwich ELISA; format: functional, organism-based; parameters: dose 1 mg/kg
Mus musculus [13] = assay: Antiinflammatory activity in Swiss mouse assessed as reduction of carrageenan-induced paw myeloperoxidase activity measured per mg of tissue at 1 mg/kg, ip administered 30 mins prior to carrageenan challenge measured after 4 hrs (reference value: 10.9 +/- 1.2 U); format: functional; details: route intraperitoneal
Mus musculus [14] = assay: Antiinflammatory activity in Swiss mouse assessed as inhibition of histamine-induced paw edema at 1 mg/kg, ip administered 30 mins prior to histamine challenge measured after 60 mins relative to untreated control; format: functional, organism-based; parameters: dose 1 mg/kg
Mus musculus [15] = assay: Antiinflammatory activity in Swiss mouse assessed as inhibition of serotonin-induced paw edema at 1 mg/kg, ip administered 30 mins prior to serotonin challenge measured after 4 hrs relative to untreated control; format: functional; details: route intraperitoneal
Mus musculus [16] = assay: Antiinflammatory activity in Swiss mouse assessed as reduction of carrageenan-induced IL-1beta level into peritoneal fluid at 1 mg/kg, ip administered 1 hr prior to carrageenan challenge measured after 4 hrs by sandwich ELISA; format: functional, organism-based; parameters: dose 1 mg/kg
Mus musculus [17] = assay: Antiinflammatory activity in Swiss mouse assessed as inhibition of carrageenan-induced paw edema at 0.1 mg/kg, ip measured at 3 hrs by plethysmometric analysis relative to untreated control; format: functional; details: route intraperitoneal
Mus musculus [18] = assay: Antiinflammatory activity in Swiss mouse assessed as inhibition of carrageenan-induced paw edema at 0.1 mg/kg, ip measured at 1 hr by plethysmometric analysis relative to untreated control; format: functional; details: route intraperitoneal
Mus musculus [19] = assay: Antiinflammatory activity in Swiss mouse assessed as inhibition of carrageenan-induced paw edema at 1 mg/kg, ip measured at 4 hrs by plethysmometric analysis relative to untreated control; format: functional; details: route intraperitoneal
Mus musculus [20] = assay: Neurotoxicity in Swiss mouse assessed as motor impairment at 1 to 10 mg/kg, ip administered 60 mins measured for 1 min by rotarod test; format: toxicity, organism-based; parameters: dose 1-10 mg/kg, route intraperitoneal; details: in vivo
Mus musculus [21] = assay: Antinociceptive activity in Swiss mouse assessed as inhibition of acetic acid-induced abdominal writhing response at 1 mg/kg, ip administered 30 mins prior to acetic acid challenge measured for 10 to 20 mins; format: functional; details: Abdomen, route intraperitoneal
Mus musculus [22] = assay: Antinociceptive activity in Swiss mouse assessed as increase in latency time at 1 mg/kg, ip administered 30 mins prior to testing measured after 30 to 120 mins by hot plate test; format: functional, organism-based; parameters: dose 1 mg/kg
Mus musculus [23] = assay: Antiinflammatory activity in Swiss mouse assessed as inhibition of carrageenan-induced paw edema at 0.3 mg/kg, ip measured at 1 hr by plethysmometric analysis relative to untreated control; format: functional; details: route intraperitoneal
Mus musculus [24] = assay: Antiinflammatory activity in Swiss mouse assessed as inhibition of carrageenan-induced paw edema at 1 mg/kg, ip measured at 2 hrs by plethysmometric analysis relative to untreated control; format: functional; details: route intraperitoneal
Mus musculus [25] = assay: Antiinflammatory activity in Swiss mouse assessed as inhibition of carrageenan-induced total leukocytes migration into peritoneal cavity at 1 mg/kg, ip administered 30 mins prior to carrageenan challenge measured after 4 hrs relative to carrageenan-treated control; format: functional; details: route intraperitoneal
Mus musculus [26] = assay: Antinociceptive activity in Swiss mouse assessed as inhibition of formalin-induced paw licking at 1 mg/kg, ip administered 30 mins prior to formalin challenge measured during neurogenic phase for 1 to 5 mins in presence of opioid receptor antagonist naloxone; format: functional, organism-based; parameters: dose 1 mg/kg
Mus musculus [27] = assay: Antiinflammatory activity in Swiss mouse assessed as inhibition of carrageenan-induced paw edema at 0.3 mg/kg, ip measured at 2 hrs by plethysmometric analysis relative to untreated control; format: functional; details: route intraperitoneal
Mus musculus [28] = assay: Neurotoxicity in Swiss mouse assessed as motor impairment at 5 mg/kg, ip administered 60 mins measured for 1 min by rotarod test; format: toxicity, organism-based; parameters: dose 5 mg/kg, route intraperitoneal; details: in vivo
Mus musculus [29] = species on record: Mus musculus; assay: animal or person; details: Swiss, sc, read-out: INH
Description: Antinociceptive activity in Swiss mouse assessed as inhibition of formalin-induced paw licking at 5 mg/kg, sc administered 30 mins prior to formalin challenge measured during neurogenic phase for 1 to 5 mins

Mus musculus [30] = assay: Antinociceptive activity in Swiss mouse assessed as increase in latency time at 5 mg/kg, sc administered 30 mins prior to testing measured after 30 to 120 mins by hot plate test; format: functional, organism-based; parameters: dose 5 mg/kg
Mus musculus [31] = species on record: Mus musculus; assay: animal or person; details: Swiss, sc, read-out: INH; remark: listed apart in the source
Description: Antinociceptive activity in Swiss mouse assessed as inhibition of formalin-induced paw licking at 5 mg/kg, sc administered 30 mins prior to formalin challenge measured during inflammatory phase for 20 to 25 mins

Mus musculus [32] = species on record: Mus musculus; assay: animal or person; details: Swiss, Abdomen, ip, read-out: INH
Description: Antinociceptive activity in Swiss mouse assessed as inhibition of acetic acid-induced abdominal writhing response at 5 mg/kg, ip administered 30 mins prior to acetic acid challenge measured for 10 to 20 mins

Mus musculus [33] = assay: Antiinflammatory activity in Swiss mouse assessed as inhibition of dextran sulfate-induced paw edema at 10 mg/kg, ip administered 30 mins prior to dextran sulfate challenge measured after 4 hrs relative to untreated control; format: functional, organism-based; parameters: dose 10 mg/kg
Mus musculus [34] = assay: Antiinflammatory activity in Swiss mouse assessed as inhibition of histamine-induced paw edema at 10 mg/kg, ip administered 30 mins prior to histamine challenge measured after 60 mins relative to untreated control; format: functional, organism-based; parameters: dose 10 mg/kg
Mus musculus [35] = assay: Antiinflammatory activity in Swiss mouse assessed as inhibition of carrageenan-induced paw edema at 10 mg/kg, ip measured at 1 hr by plethysmometric analysis relative to untreated control; format: functional; details: route intraperitoneal
Mus musculus [36] = assay: Antiinflammatory activity in Swiss mouse assessed as inhibition of bradykinin-induced paw edema at 10 mg/kg, ip administered 30 mins prior to bradykinin challenge measured after 60 mins in presence of captopril relative to untreated control; format: functional, organism-based; parameters: dose 10 mg/kg
Mus musculus [37] = assay: Antiinflammatory activity in Swiss mouse assessed as inhibition of carrageenan-induced paw edema at 10 mg/kg, ip measured at 3 hrs by plethysmometric analysis relative to untreated control; format: functional; details: route intraperitoneal
Mus musculus [38] = assay: Antiinflammatory activity in Swiss mouse assessed as inhibition of carrageenan-induced total leukocytes migration into peritoneal cavity at 10 mg/kg, ip administered 30 mins prior to carrageenan challenge measured after 4 hrs relative to carrageenan-treated control; format: functional; details: route intraperitoneal
Mus musculus [39] = assay: Antiinflammatory activity in Swiss mouse assessed as reduction of carrageenan-induced paw myeloperoxidase activity measured per mg of tissue at 10 mg/kg, ip administered 30 mins prior to carrageenan challenge measured after 4 hrs (reference value: 10.9 +/- 1.2 U); format: functional; details: route intraperitoneal
Mus musculus [40] = assay: Antiinflammatory activity in Swiss mouse assessed as inhibition of carrageenan-induced neutrophil migration into peritoneal cavity at 10 mg/kg, ip administered 30 mins prior to carrageenan challenge measured after 4 hrs relative to carrageenan-treated control; format: functional; details: route intraperitoneal
Mus musculus [41] = assay: Antiinflammatory activity in Swiss mouse assessed as inhibition of carrageenan-induced paw edema at 10 mg/kg, ip measured at 2 hrs by plethysmometric analysis relative to untreated control; format: functional; details: route intraperitoneal
Mus musculus [42] = assay: Antiinflammatory activity in Swiss mouse assessed as inhibition of serotonin-induced paw edema at 10 mg/kg, ip administered 30 mins prior to serotonin challenge measured after 4 hrs relative to untreated control; format: functional, organism-based; parameters: dose 10 mg/kg
Mus musculus [43] = assay: Antiinflammatory activity in Swiss mouse assessed as inhibition of carrageenan-induced paw edema at 10 mg/kg, ip measured at 4 hrs by plethysmometric analysis relative to untreated control; format: functional; details: route intraperitoneal

Cn1cnc(C[C@H]2COC(=O)[C@@H]2[C@H](O)c2ccccc2)c1 [EPIISOPILOTURINE]
inhibition in vivo at 0.3 mg/kg (Mus musculus [1]): 70% | inhibition in vivo at 1 mg/kg (Mus musculus [2]): 89.2% | inhibition in vivo at 1 mg/kg (Mus musculus [3]): 73.8% | inhibition in vivo at 0.1 mg/kg (Mus musculus [4]): 49.7% | inhibition in vivo at 1 mg/kg (Mus musculus [5]): 54.1% | inhibition in vivo at 0.3 mg/kg (Mus musculus [6]): 67.6% | inhibition in vivo at 1 mg/kg (Mus musculus [7]): 58.2% | inhibition in vivo at 1 mg/kg (Mus musculus [8]): 76.9% | inhibition in vivo at 1 mg/kg (Mus musculus [9]): 85% | inhibition in vivo at 0.1 mg/kg (Mus musculus [10]): 46.8% | inhibition in vivo at 1 mg/kg (Mus musculus [11]): 65% | Activity (Mus musculus [12]): Active | Activity (Mus musculus [13]): 3.8 U | inhibition (Mus musculus [14]): inactive | inhibition in vivo at 1 mg/kg (Mus musculus [15]): 46.7% | Activity (Mus musculus [16]): Active | inhibition in vivo at 0.1 mg/kg (Mus musculus [17]): 55% | inhibition in vivo at 0.1 mg/kg (Mus musculus [18]): 36% | inhibition in vivo at 1 mg/kg (Mus musculus [19]): 73% | Activity (Mus musculus [20]): Non-toxic | inhibition in vivo at 1 mg/kg (Mus musculus [21]): 66.4% | Activity (Mus musculus [22]): inactive | inhibition in vivo at 0.3 mg/kg (Mus musculus [23]): 48% | inhibition in vivo at 1 mg/kg (Mus musculus [24]): 79.5% | inhibition in vivo at 1 mg/kg (Mus musculus [25]): 55.2% | Activity (Mus musculus [26]): inactive | inhibition in vivo at 0.3 mg/kg (Mus musculus [27]): 71.3%

CN1C(=O)CN=C(c2ccccc2)c2cc(Cl)ccc21 [DIAZEPAM]
Activity (Mus musculus [28]): Toxic

CN1CC[C@]23c4c5ccc(O)c4O[C@H]2[C@@H](O)C=C[C@H]3[C@H]1C5 [MORPHINE]
inhibition in vivo at 5 mg/kg (Mus musculus [29]): 94% | Activity (Mus musculus [30]): Active | inhibition in vivo at 5 mg/kg (Mus musculus [31]): 97.2% | inhibition in vivo at 5 mg/kg (Mus musculus [32]): 98.3%

COc1ccc2c(c1)c(CC(=O)O)c(C)n2C(=O)c1ccc(Cl)cc1 [INDOMETHACIN]
inhibition (Mus musculus [33]): Active | inhibition (Mus musculus [34]): Active | inhibition in vivo at 10 mg/kg (Mus musculus [35]): 55% | inhibition (Mus musculus [36]): Active | inhibition in vivo at 10 mg/kg (Mus musculus [37]): 43.7% | inhibition in vivo at 10 mg/kg (Mus musculus [38]): 60.2% | Activity (Mus musculus [39]): 3.1 U | inhibition in vivo at 10 mg/kg (Mus musculus [40]): 79.6% | inhibition in vivo at 10 mg/kg (Mus musculus [41]): 50.9% | inhibition (Mus musculus [42]): Active | inhibition in vivo at 10 mg/kg (Mus musculus [43]): 37%
